Measurements from patent publication US5723115A, “Inhibition of adipose tissue development and obesity” (W. Alton Jones Cell Science Center, Inc., priority 1993, dated 1998).

Key:
1246 cells = assay: Differentiation of 1246 cells (G3PDH enzymatic activity); format: cell-based
Experimental: FIG. 11 is a graph showing the dose-related inhibition of adipocyte differentiation by prostaglandin F2α (PGF^2α). 1246 cells were incubated with the indicated dose of pGF^2α
FIG. 12 is a graph showing that indomethacin reverses the EGF-induced inhibition of adipocyte differentiation. 1246 cells were incubated in medium ("no"=control, 100% of activity) or in the presence of indicated concentrations of EGF, indomethacin ("Indo") or a mixture of EGF (E) at the indicated concentration and indomethacin (I) at 3 μM. As above, differentiation was assessed as G3PDH enzymatic activity.
Stimulation of PLA2 will result in the activation of the cyclooxygenase pathway, leading to generation of various prostaglandins, as is well-known in the art. One metabolite of this pathway, prostaglandin F2α (PGF2α), was tested for its ability to act as a mediator of the EGF effect and inhibit adipocyte differentiation.
If EGF inhibits adipocyte differentiation via the activation of PLA2 and cyclooxygenase, it would be expected that an inhibitor of cyclooxygenase would counteract the EGF effect.

[1] = tested on: newborn NBR rats (inguinal fat pads); assay: Daily sc EGF injection of newborn NBR rats for 10 days: eyelid response, body, organ and inguinal fat pad measures; format: in vivo, rat
Experimental: New Zealand Brown (NBR) rats (Trudeau Institute, Saranac Lake, N.Y.) were mated in the animal facilities of the W. Alton Jones Cell Science Center. One day after delivery, litter size was adjusted to 6-8 pups/female according to the size and age of the females. No more than 8 pups/female were used. Mothers were fed ad libitum a regular laboratory diet and were allowed free access to water. Animals were housed in rooms in which the air flow, temperature and lights were controlled (12 h of light between 6 AM to 6 PM).
Mouse "receptor grade" EGF (Biomedical Technologies, Inc.) was used in all experiments. […] Beginning at 24 hrs after birth, rats were injected subcutaneously (sc) daily for 10 days with EGF dissolved in physiological saline at doses varying between 0.1 and 1.0 μg/g of body weight. The pups were weighed prior to each injection. Control animals were similarly handled and weighed, and were injected sc with an equivalent volume of physiological saline.
(§1) Inguinal fat pads, well developed in 10 day-old animals, can be easily dissected. Inguinal fat pads were excised, weighed and pooled. They were digested with collagenase using the method of Bjorntorp et al. (23), and duplicate aliquots were kept for measuring triglyceride content as described below. Digestion conditions minimized breakage of adipocytes during the incubation period (23). After digestion, the cell suspension was filtered through a 253 μm nylon mesh filter. Adipocytes were easily recovered by two successive flotations of the cell suspension. The infranatant containing the adipocyte precursors was removed with a plastic pipet and further filtered through an 80 μm nylon mesh. The adipocytes remained in the tube after removal of the infranatant. They were gently resuspended in culture medium and counted in a hemocytometer. The filtrate containing the adipocyte precursors was centrifuged twice at 200×g for 5 minutes. Adipocyte precursor pellets were resuspended in 4F medium. The cells were subsequently counted in a hemocytometer and inoculated in 35 mm dishes in 4F medium as described previously (24). Such cultures were used to evaluate the cells' ability to differentiate and to measure their responsiveness to EGF.
For determination of triglyceride content, lipids were extracted from duplicate aliquots of the fat pad cell suspensions obtained as above pads, using the method of Bligh et al. (26). Triglycerides were separated by thin-layer chromatography on silica gel plates using hexane/[…]/formic acid (60:40:1) as a solvent system. Spots containing triglycerides were scraped, and the triglyceride content was determined by the method of Marsh et al. (27). This method consists of a quantitative charring of the triglycerides at 200° C. for 15 min in the presence of concentrated sulfuric acid. Absorbance of the samples at 350 nm was measured in a spectrophotometer using known amounts of triolein as standards.
Ten separate in vivo experiments were performed with neonatal NBR rats. Over the 10 day period, pups injected with saline alone or with EGF were weighed daily. The efficiency of EGF injected was assessed by monitoring the "eyelid response," by determining the postnatal day on which eyelid opening occurs, which is related to the EGF dose (28). Eyelid opening occurred at day 8 in rats injected with EGF at a concentration of 1 μg/g body weight, 24 hrs later in rats treated with 0.6 μg EGF/g body weight, and 48 hrs later in rats injected with 0.3 μg EGF/g body weight.

[2] = tested on: adipocyte precursors isolated from inguinal fat pads; assay: Differentiation capacity in 4F medium of adipocyte precursors isolated from EGF-treated rats (G3PDH specific activity); format: cell-based, rat
Experimental: as §1
(§2) The defined medium designated 4F consists of a 1:1 mixture of Dulbecco's modified Eagle's medium (DME) and Ham's F12 medium (DME-F12 medium) containing 15 mM HEPES, pH 7.4, 1.2 mg/ml sodium bicarbonate, 50 μg/ml gentamicin, and the following mixture of proteins: fibronectin (2.5 μg/ml), insulin (10 μg/ml), transferrin (10 μg/ml) and fibroblast growth factor (10 ng/ml). The medium was originally developed to support the differentiation of the adipogenic cell line, 1246 (25). When cultivated in this medium, optimal differentiation of adipocyte precursors was achieved within 8 days of culture (24).
It was shown previously (24) that adipocyte precursors freshly isolated from inguinal fat pads of 48 hr-old rats proliferated and differentiated in 4F medium (see above). […]

[3] = tested on: adipocyte precursors isolated from inguinal fat pads; assay: Inhibition by EGF of differentiation of primary culture adipocyte precursors (G3PDH activity); format: cell-based, rat
Experimental: as §1, §2
Studies from the present inventor's laboratory (10) have shown that the differentiation in vitro of adipocyte precursors cultivated in 4F medium was inhibited in a dose-dependent manner by EGF added to the medium. […]

adipocyte precursors = assay: Effect of EGF on proliferation of adipocyte precursors in 4F medium (cell count); format: cell-based, rat
Experimental: FIG. 5 is a graph showing the effect of EGF on proliferation of adipocyte precursors. Controls and EGF-treated animals as in FIG. 4. After 8 days of culture, cells were detached with trypsin and counted on a Coulter counter. Values represent means±standard errors.
For this purpose, adipocyte precursors isolated from inguinal fat pads of control or EGF-injected animals (1 μg/g body weight) were cultivated in 4F medium alone or in the presence of increasing concentrations of EGF. […] The ED50 for EGF on cells from EGF-treated animals was calculated to be 0.5 ng/ml, compared to an ED50 of 0.9 ng/ml for EGF acting on control cells.
Marked stimulation of proliferation (in cells from controls or EGF-treated rats) was observed only at EGF concentrations above 1 ng/ml.

newborn rats = assay: Neonatal EGF treatment of rats, body weight development over 28 days; format: in vivo, rat; details: 0.6 μg/g body weight, from 24 hours after birth, 9 days
Experimental: FIG. 6 is a graph showing the effect of EGF treatment of newborn rats on development of body weight over 28 days. Rats were injected beginning at 24 hours after birth with EGF (0.6 μg/g body weight) (filled squares) or with vehicle (PBS) (+) for 9 days.

obese yellow mice = assay: Neonatal EGF treatment of obese yellow mice, body weight development over 43 days; format: in vivo, mouse; details: 1 μg/g body weight, day 1 to day 10 of life
Experimental: FIG. 7 is a graph showing the effect of EGF treatment on development of body weight in obese yellow mice over 43 days. Mice were injected beginning at 24 hours after birth with EGF (1 μg/g body weight) (filled diamonds, marked 1Y) or with vehicle (PBS) (+, marked OY) for 9 days. Weights are shown beginning at postnatal day 13

phospholipase A2 (PLA2) = details: EGF 10 ng/ml
Experimental: Experiments were performed to examine whether stimulation of adipocyte precursors, either primary cultures or the 1246 cell line, activated the enzyme phospholipase A2 (PLA2) which results in the activation of cyclooxygenase and the generation of prostaglandins.

[4] = tested on: adipocyte precursors isolated from inguinal fat pads; details: earlier study; cited from earlier work
EGF receptors = biological target: T1, EGF receptors (Rattus norvegicus, UniProt G3V6K6); assay: 125I-EGF binding to EGF receptors on adipocyte precursors; details: control and treated rats, with or without acid wash
T1 construct: adipocyte precursors have specific EGF receptors on their surface; endogenous in cells; host or cells: primary adipocyte precursors from inguinal fat pads of neonatal NBR rats
Source text: The properties of adipocytes from EGF-treated rats, namely, a decreased ability to differentiate and an increased sensitivity to EGF in vitro, could not be explained by occupancy of EGF receptors at the time of cell isolation.

[5] = tested on: organs including inguinal fat pads; details: rat, in vivo
Source text: One question raised by the above results is whether the inhibition of adipose tissue development by EGF is due to a direct action of EGF on adipose tissue or by indirect action via another growth factor or hormone. Several observations point to direct action of EGF: EGF inhibits the differentiation of primary culture of adipocyte precursors freshly isolated from inguinal fat pads (10); adipocyte precursors have specific EGF receptors on their surface (10).

[6] = EGF-treated compared to control animals

Molecule: COc1ccc2c(c1)c(CC(=O)O)c(C)n2C(=O)c1ccc(Cl)cc1 [indomethacin]
- effect on EGF inhibition of adipocyte differentiation (1246 cells; indomethacin 3 μM with EGF at 2 or 10 ng/ml): completely reversed

Molecule: Epidermal growth factor [EGF]
- eyelid opening at termination, day 10 ([1]; 0.1 μg EGF/g body weight sc daily): eyelid opening had not yet occurred
- eyelid opening, time later than at the 1 μg/g dose ([1]; 0.3 μg EGF/g body weight sc daily): 48 h
- eyelid opening, time later than at the 1 μg/g dose ([1]; 0.6 μg EGF/g body weight sc daily): 24 h
- fat pad triglyceride content, lower than control ([1]; 1 μg EGF/g body weight): 80%
- number of mature adipocytes in the fat pad, lower than in control animals ([1]; 1 μg EGF/g body weight): 4 fold
- body weight, less than in control animals ([1]; 1 μg EGF/g body weight, 10 days): 40%
- inguinal fat pad weight, lower than in controls ([1]; 1 μg of EGF/g body weight, 10 days): 50%
- number of adipocyte precursors per fat pad, higher than in control animals ([1]; 1 μg/g body weight): 1.8 fold
- postnatal day on which eyelid opening occurs ([1]; 1 μg/g body weight sc daily): 8 days
- intestinal weight ([1]; EGF treatment): increased
- kidney weight ([1]; EGF treatment): some decrease
- liver weight ([1]; EGF treatment): unchanged
- total number of cells (precursors plus adipocytes) in fat pads, lower than controls ([1]; EGF-treated animals): 40%
- hair growth [1, 6]: delay in hair growth
- incisor eruption [1, 6]: acceleration of incisor eruption
- lowest EGF dose at which a significant delay of adipose tissue development was observed ([1]; daily sc injection): 0.3 μg/g body weight
- G3PDH specific activity corresponding to 100% activity (FIG. 4) ([2]; cells from EGF-treated rats): 337±53 milliunits/mg protein
- G3PDH specific activity, lower than control ([2]; cells from animals treated with 1 μg/g, day 8 of culture): 60%
- G3PDH specific activity ([2]; cells from animals treated with EGF 1 μg/g, 5 separate experiments): 337±53 mU/mg protein
- differentiation (G3PDH activity) ([3]; EGF 10 ng/ml, primary cultures): inhibition of differentiation
- ED50 for inhibition of differentiation (G3PDH enzyme activity) ([3]; cells from EGF-treated animals (1 μg/g body weight)): 0.5 ng/mL
- ED50 for inhibition of differentiation (G3PDH enzyme activity) ([3]; control cells): 0.9 ng/mL
- effect on cell proliferation of the EGF concentration which inhibited differentiation by 50% (adipocyte precursors): moderate or no effects
- proliferation of adipocyte precursors (adipocyte precursors; EGF added to 4F medium, cells from control and EGF-treated rats, 8 days): stimulated proliferation
- EGF concentration giving marked stimulation of proliferation (adipocyte precursors; cells from controls or EGF-treated rats): above 1 ng/ml
- body weight over a 28 day period (newborn rats): significant reduction in body weight
- body weight over at least 43 days (obese yellow mice): prolonged and profound diminution in body weight
- PLA2 activity (phospholipase A2 (PLA2)): increase in PLA2 activity
- differentiation of primary culture adipocyte precursors from inguinal fat pad of newborn rats [4]: potent inhibitor

Molecule: ^125 I-EGF: radiolabeled EGF used in binding studies
- EGF bound to EGF receptors on adipocyte precursors (EGF receptors): about 4 pg EGF bound per 10^5 cells
- binding to organs after sc injection [5]: specifically bound to several organs including inguinal fat pads

Molecule: prostaglandin F2α [PGF2α]
- differentiation of 1246 cells (1246 cells; indicated doses (FIG. 11)): concentration-dependent inhibition

Molecule: transforming growth factor.α [TGFα]
- differentiation of primary culture adipocyte precursors from inguinal fat pad of newborn rats [4]: potent inhibitor
